In the assay the target is T1, Human M4 (Homo sapiens, UniProt P08173).
T1 construct: expressed in transfected cells; host or cells: CHO-K1 (Chinese hamster ovary, ATCC), stably expressing M4 and Gqi5
T1 sequence (P08173 1-479): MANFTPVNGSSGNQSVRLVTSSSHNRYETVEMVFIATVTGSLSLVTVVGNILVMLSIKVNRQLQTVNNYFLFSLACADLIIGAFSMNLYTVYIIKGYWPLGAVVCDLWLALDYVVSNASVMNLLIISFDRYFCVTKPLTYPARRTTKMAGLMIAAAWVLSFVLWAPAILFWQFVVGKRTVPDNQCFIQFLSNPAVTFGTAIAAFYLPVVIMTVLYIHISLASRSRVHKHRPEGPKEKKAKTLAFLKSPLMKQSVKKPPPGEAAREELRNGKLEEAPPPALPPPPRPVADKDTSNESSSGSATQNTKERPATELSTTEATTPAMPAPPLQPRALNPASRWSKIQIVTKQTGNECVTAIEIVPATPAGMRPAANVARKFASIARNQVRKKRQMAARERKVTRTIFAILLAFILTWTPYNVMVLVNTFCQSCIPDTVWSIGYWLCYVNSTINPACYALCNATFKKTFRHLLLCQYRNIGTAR
Kind of assay: mAChR M4 cell-based functional assay (calcium flux, EC80 acetylcholine response). The method, then: Human or rat M4 cDNA, along with the chimeric G protein Gqi5, were transfected into Chinese hamster ovary (CHO-K1) cells purchased from the American Type Culture Collection using Lipofectamine2000. M4/Gqi5/CHO cells were grown in Ham's F-12 medium containing […] heat-inactivated fetal bovine serum (FBS), 20 mM HEPES, 500 μg/mL G418 sulfate, and 200 μg/mL Hygromycin B.
For high throughput measurement of agonist-evoked increases in intracellular calcium, CHO-K1 cells stably expressing muscarinic receptors were plated in growth medium lacking G418 and hygromycin at 15,000 cells/20 μL/well in Greiner 384-well black-walled, tissue culture (TC)-treated, clear-bottom plates (VWR). Cells were incubated overnight at 37° C. and 500 CO2. […] Compound master plates were formatted in a 10 point concentration-response curve (CRC) format (1:3 dilutions) in 100% DMSO with a starting concentration of 10 or 1 mM using a BRAVO liquid handler (Agilent). Test compound CRCs were then transferred to daughter plates (240 nL) using the Echo acoustic plate reformatter (Labcyte, Sunnyvale, CA) and then diluted into assay buffer (40 μL) to a 2× stock using a Thermo Fisher Combi (Thermo Fisher Scientific, Waltham, MA).
Calcium flux was measured using the Functional Drug Screening System (FDSS) 6000 or 7000 (Hamamatsu Corporation, Tokyo, Japan) as an increase in the fluorescent static ratio. Compounds were applied to cells (20 μL, 2×) using the automated system of the FDSS at 2 seconds into the protocol and the data were collected at 1 Hz. […] Agonist activity was analyzed as a concentration-dependent increase in calcium mobilization upon compound addition. Positive allosteric modulator activity was analyzed as a concentration-dependent increase in the EC20 acetylcholine response. Antagonist activity was analyzed as a concentration-dependent decrease in the EC80 acetylcholine response; for the purposes of the tables herein, an IC50 (inhibitory concentration 50) was calculated as a concentration-dependent decrease of the response elicited by an EC80 concentration of acetylcholine. Concentration-response curves were generated using a four-parameter logistical equation in XLFit curve fitting software (IDBS, Bridgewater, NJ) for Excel (Microsoft, Redmond, WA) or Prism (GraphPad Software, Inc., San Diego, CA) or the Dotmatics software platform (Dotmatics, Bishop's Stortford, UK).
Compounds were synthesized as described above.

Where [1] appears, read: M4/Gqi5/CHO-K1 cells, % ACh maximum at 30 μM, read-out: Human M4 Emin (% ACh maximum at 30 μM).
The mark [2] stands for this setting: M4/Gqi5/CHO-K1 cells, decrease of the response to an EC80 concentration of acetylcholine, read-out: Human M4 IC50.

pIC50: −log10 of the molar value. Where two headings read alike, the source gives them in different places.

As for `[2H]C([2H])(C1CCOCC1)N1C[C@H]2C[C@H](Nc3ccc(-c4ccc5nn(C([2H])([2H])[2H])cc5c4C)nn3)C[C@H]2C1` [compound 9, (3aR,5s,6aS)-N-(6-(4-methyl-2-(methyl-d3)-2H-indazol-5-yl)pyridazin-3-yl)-2-((tetrahydro-2H-pyran-4-yl)methyl-d2)octahydrocyclopenta[c]pyrrol-5-amine], under setting [1], the remaining activity at 30 µM was determined as 3%. For the same compound, the pIC50 under setting [2] is 9.43. The like results for `[2H]C([2H])(C1CCOCC1)N1C[C@H]2C[C@H](Nc3ccc(-c4ccc5nn(C(F)F)cc5c4C)nn3)C[C@H]2C1` [compound 10, (3aR,5s,6aS)-N-(6-(2-(difluoromethyl)-4-methyl-2H-indazol-5-yl)pyridazin-3-yl)-2-((tetrahydro-2H-pyran-4-yl)methyl-d2)octahydrocyclopenta[c]pyrrol-5-amine] were, in that order, 2% and 9.44.

Regarding `[2H]C([2H])(C1CC(C)(C)OC(C)(C)C1)N1C[C@H]2C[C@H](Nc3ccc(-c4ccc5nn(C)cc5c4C)nn3)C[C@H]2C1` [compound 19, (3aR,5s,6aS)-N-(6-(2,4-dimethyl-2H-indazol-5-yl)pyridazin-3-yl)-2-((2,2,6,6-tetramethyltetrahydro-2H-pyran-4-yl)methyl-d2)octahydrocyclopenta[c]pyrrol-5-amine], the remaining activity at 30 µM under setting [1] came out at 5%. Besides, the pIC50 under setting [2] is 8.30. The like results for `[2H]C([2H])([C@H]1CCCCO1)N1C[C@H]2C[C@H](Nc3ccc(-c4ccc5nn(C)cc5c4C)nn3)C[C@H]2C1` [compound 11, (3aR,5s,6aS)-N-(6-(2,4-dimethyl-2H-indazol-5-yl)pyridazin-3-yl)-2-(((R)-tetrahydro-2H-pyran-2-yl)-methyl-d2)octahydrocyclopenta[c]pyrrol-5-amine] were, in that order, 2% and 9.39. `[2H]C([2H])([2H])N(c1cc(C(F)(F)F)c(-c2ccc3nn(C)cc3c2C)nn1)[C@H]1C[C@@H]2CN(CC3CCOCC3)C[C@@H]2C1` [compound 5, (3aR,5s,6aS)-N-(6-(2,4-dimethyl-2H-indazol-5-yl)-5-(trifluoromethyl)pyridazin-3-yl)-N-(methyl-d3)-2-((tetrahydro-2H-pyran-4-yl)methyl)octahydrocyclopenta[c]pyrrol-5-amine]: the remaining activity at 30 µM under setting [1] is 3%. Also, the pIC50 under setting [2] is 6.89. In the case of `[2H]C([2H])(C1CCOCC1)N1C[C@H]2C[C@H](Nc3ccc(-c4ccc5nn(C)cc5c4C)nn3)C[C@H]2C1` [compound 6, (3aR,5s,6aS)-N-(6-(2,4-dimethyl-2H-indazol-5-yl)pyridazin-3-yl)-2-((tetrahydro-2H-pyran-4-yl)methyl-d2)octahydrocyclopenta[c]pyrrol-5-amine], the remaining activity at 30 µM under setting [1] came to 3%. Also, under setting [2], the negative-log IC50 (pIC50) is 9.23. For the compound `[2H]C([2H])(N1C[C@H]2C[C@H](Nc3ccc(-c4ccc5nn(C)cc5c4C)nn3)C[C@H]2C1)C(F)(F)C1CCOCC1` [compound 23, (3aR,5s,6aS)-2-(2,2-difluoro-2-(tetrahydro-2H-pyran-4-yl)ethyl-1,1-d2)-N-(6-(2,4-dimethyl-2H-indazol-5-yl)-pyridazin-3-yl)octahydrocyclopenta[c]pyrrol-5-amine], the remaining activity at 30 µM under setting [1] worked out at 4%. Under setting [2], the pIC50 was 8.74. With `Cc1c(-c2nnc(N[C@H]3C[C@@H]4CN(CC5CCOCC5)C[C@@H]4C3)c3ccsc23)ccc2nn(C)cc12` [compound 25, 7-(2,4-dimethyl-2H-indazol-5-yl)-N-((3aR,5s,6aS)-2-((tetrahydro-2H-pyran-4-yl)methyl)-octahydrocyclopenta[c]pyrrol-5-yl)-thieno[2,3-d]pyridazin-4-amine], the pIC50 is 9.30. In addition, the remaining activity at 30 µM (CHO-K1, read-out: Human M4 Emin (% ACh maximum at 30 μM)) amounted to 7%. For `[2H]C([2H])([C@H]1COCCO1)N1C[C@H]2C[C@H](Nc3ccc(-c4ccc5nn(C)cc5c4C)nn3)C[C@H]2C1` [compound 15, (3aR,5s,6aS)-2-(((S)-1,4-dioxan-2-yl)-methyl-d2)-N-(6-(2,4-dimethyl-2H-indazol-5-yl)-pyridazin-3-yl)octahydrocyclopenta[c]pyrrol-5-amine], the remaining activity at 30 µM under setting [1] amounted to 3%. The pIC50 under setting [2] was 9.38. Take `[2H]C1([2H])CC(C([2H])([2H])N2C[C@H]3C[C@H](Nc4nnc(-c5ccc6nn(C)cc6c5C)cc4C)C[C@H]3C2)CC([2H])([2H])O1` [compound 24, (3aR,5s,6aS)-N-(6-(2,4-dimethyl-2H-indazol-5-yl)-4-methylpyridazin-3-yl)-2-((tetrahydro-2H-pyran-4-yl-2,2,6,6-d4)methyl-d2)octahydrocyclopenta[c]pyrrol-5-amine]: the remaining activity at 30 µM under setting [1] turned out to be 3%. Moreover, under setting [2], the pIC50 was 9.68. Regarding `Cc1c(-c2cc(C(F)F)c(N[C@H]3C[C@@H]4CN(CC5CCOCC5)C[C@@H]4C3)nn2)ccc2nn(C)cc12` [compound 29, (3aR,5s,6aS)-N-(4-(difluoromethyl)-6-(2,4-dimethyl-2H-indazol-5-yl)pyridazin-3-yl)-2-((tetrahydro-2H-pyran-4-yl)methyl)octahydrocyclopenta[c]pyrrol-5-amine], the remaining activity at 30 µM under setting [1] was found to be 3%.

For `Cc1cc(N[C@H]2C[C@@H]3CN(CC4CCOCC4)C[C@@H]3C2)nnc1-c1ccc2nn(C)cc2c1C` [compound 27, (3aR,5s,6aS)-N-(6-(2,4-dimethyl-2H-indazol-5-yl)-5-methylpyridazin-3-yl)-2-((tetrahydro-2H-pyran-4-yl)methyl)octahydrocyclopenta[c]pyrrol-5-amine], the remaining activity at 30 µM under setting [1] turned out to be 3%. Under setting [2], the pIC50 is 9.12. For `Cc1cc2nn(C)cc2cc1-c1ccc(N[C@H]2C[C@@H]3CN(CC4CCOCC4)C[C@@H]3C2)nn1` [compound 1, (3aR,5s,6aS)-N-(6-(2,6-dimethyl-2H-indazol-5-yl)pyridazin-3-yl)-2-((tetrahydro-2H-pyran-4-yl)methyl)octahydrocyclopenta[c]pyrrol-5-amine], the remaining activity at 30 µM under setting [1] amounted to 3%. Besides, under setting [2], the pIC50 is 8.57.

With `Cn1cc2c(C(F)(F)F)c(-c3ccc(N[C@H]4C[C@@H]5CN(CC6CCOCC6)C[C@@H]5C4)nn3)ccc2n1` [compound 7, (3aR,5s,6aS)-N-(6-(2-methyl-4-(trifluoromethyl)-2H-indazol-5-yl)pyridazin-3-yl)-2-((tetrahydro-2H-pyran-4-yl)methyl)octahydrocyclopenta[c]pyrrol-5-amine], under setting [1], the remaining activity at 30 µM came to 3%. Also, the pIC50 under setting [2] was 8.82. For the compound `[2H]C([2H])([C@@H]1COCCO1)N1C[C@H]2C[C@H](Nc3ccc(-c4ccc5nn(C)cc5c4C)nn3)C[C@H]2C1` [compound 16, (3aR,5s,6aS)-2-(((R)-1,4-dioxan-2-yl)-methyl-d2)-N-(6-(2,4-dimethyl-2H-indazol-5-yl)pyridazin-3-yl)octahydrocyclopenta[c]pyrrol-5-amine], the remaining activity at 30 µM under setting [1] came out at 3%. In addition, the pIC50 under setting [2] was 8.05. Turning to `Cc1c(-c2ccc(N[C@H]3C[C@@H]4CN(Cc5ccccn5)C[C@@H]4C3)nn2)ccc2nn(C)cc12` [compound 4, (3aR,5s,6aS)-N-(6-(2,4-dimethyl-2H-indazol-5-yl)pyridazin-3-yl)-2-(pyridin-2-ylmethyl)octahydrocyclopenta[c]pyrrol-5-amine], the remaining activity at 30 µM under setting [1] came out at 3%. Further, the pIC50 under setting [2] was 8.66.

Usually pIC50 stands for the negative decadic logarithm of the IC50, by convention in mol/L.

Source of the values: patent US20240174655A1, “INDAZOLE DERIVATIVES AS ANTAGONISTS OF THE MUSCARINIC ACETYLCHOLINE RECEPTOR M4” (Vanderbilt University, priority 2021, published 2024).
